In US12516044B2, “Heterocyclic compounds as immunomodulators” (Incyte Corporation, priority 2015, dated 2026):

Each molecule was assayed against T1, PD-1/PD-L1 protein/protein interaction (Homo sapiens, UniProt Q9NZQ7) (assay: PD-1/PD-L1 Homogeneous Time-Resolved Fluorescence (HTRF) Binding Assay). Conditions: recombinant human PD-L1 (19-238) His-tag and human PD-1 (25-167) Fc tag; 25° C., PBS pH 7.4.
T1 construct: Recombinant human PD-L1 protein (19-238) with a His-tag at the C-terminus; purchased AcroBiosystems PD1-H5229 (PD-L1-His); PD1-H5257 (PD-1-Fc)
T1 sequence (Q9NZQ7 19-238): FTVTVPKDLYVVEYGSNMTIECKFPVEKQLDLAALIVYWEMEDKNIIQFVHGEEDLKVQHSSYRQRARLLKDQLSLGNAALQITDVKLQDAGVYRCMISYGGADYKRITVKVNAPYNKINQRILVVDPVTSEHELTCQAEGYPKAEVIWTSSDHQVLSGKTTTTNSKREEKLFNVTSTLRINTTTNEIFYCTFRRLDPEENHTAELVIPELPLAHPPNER
Method: Example A. PD-1/PD-L1 Homogeneous Time-Resolved Fluorescence (HTRF) Binding Assay
The assays were conducted in a standard black 384-well polystyrene plate with a final volume of 20 μL. Inhibitors were first serially diluted in DMSO and then added to the plate wells before the addition of other reaction components. The final concentration of DMSO in the assay was 1%. The assays were carried out at 25° C. in the PBS buffer (pH 7.4) with 0.05% Tween-20 and 0.1% BSA. Recombinant human PD-L1 protein (19-238) with a His-tag at the C-terminus was purchased from AcroBiosystems (PD1-H5229). Recombinant human PD-1 protein (25-167) with Fc tag at the C-terminus was also purchased from AcroBiosystems (PD1-H5257). PD-L1 and PD-1 proteins were diluted in the assay buffer and 10 μL was added to the plate well. Plates were centrifuged and proteins were preincubated with inhibitors for 40 minutes. The incubation was followed by the addition of […] of HTRF detection buffer supplemented with Europium cryptate-labeled anti-human IgG (PerkinElmer-AD0212) specific for Fc and anti-His antibody conjugated to SureLight®-Allophycocyanin (APC, PerkinElmer-AD0059H). After centrifugation, the plate was incubated at 25° C. for 60 min. before reading on a PHERAstar FS plate reader (665 nm/620 nm ratio). Final concentrations in the assay were […] PD1, 10 nM PD-L1, 1 nM europium anti-human IgG and 20 nM anti-His-Allophycocyanin. IC50 determination was performed by fitting the curve of percent control activity versus the log of the inhibitor concentration using the GraphPad Prism 5.0 software.

| SMILES | IC50 |
| --- | --- |
| Cc1cnc(C(=O)Nc2cccc(-c3ccccc3)c2C)cc1CNCCO [Example 37, 4-{[(2-hydroxyethyl)amino]methyl}-5-methyl-N-(2-methylbiphenyl-3-yl)pyridine-2-carboxamide] | 10 to 100 nM |
| N#Cc1c(NC(=O)c2ccc(CNCCO)cn2)cccc1C1=CCCCC1 [Example 38, N-(2-cyano-3-cyclohex-1-en-1-ylphenyl)-5-{[(2-hydroxyethyl)amino]methyl} pyridine-2-carboxamide] | ≤ 10 nM |
| N#Cc1c(NC(=O)c2ccc(CNCCO)cn2)cccc1N1CCCCC1 [Example 39, N-(2-cyano-3-piperidin-1-ylphenyl)-5-{[(2-hydroxyethyl)amino]methyl}pyridine-2-carboxamide] | > 1000 nM |
| CC(C)(C)OC(=O)N1CCC=C(c2cccc(NC(=O)c3ccc(CNCCO)cn3)c2C#N)C1 [Example 40, tert-butyl 5-(2-cyano-3-{[(5-{[(2-hydroxyethyl)amino]methyl}pyridin-2-yl)carbonyl]amino}phenyl)-3,6-dihydropyridine-1(2H)-carboxylate] | 100 to 1000 nM |
| N#Cc1c(NC(=O)c2ccc(CNCCO)cn2)cccc1C1CCCCC1 [Example 41, N-(2-cyano-3-cyclohexylphenyl)-5-{[(2-hydroxyethyl)amino]methyl}pyridine-2-carboxamide] | 10 to 100 nM |
| Cc1c(NC(=O)c2ccc(CN3CCCC[C@H]3C(=O)O)cn2)ccnc1-c1ccccc1 [Example 42, (S)-1-((6-(3-methyl-2-phenylpyridin-4-ylcarbamoyl)pyridin-3-yl)methyl)piperidine-2-carboxylic Acid] | > 1000 nM |
| Cc1c(NC(=O)c2ccc(CNCCO)cn2)ccnc1-c1ccccc1 [Example 43, 5-{[(2-hydroxyethyl)amino]methyl}-N-(3-methyl-2-phenylpyridin-4-yl)pyridine-2-carboxamide] | 100 to 1000 nM |
| N#Cc1c(NC(=O)c2ccc(CNCCO)cn2)cccc1C1=COCCC1 [Example 44, N-[2-cyano-3-(3,4-dihydro-2H-pyran-5-yl)phenyl]-5-{[(2-hydroxyethyl)amino]methyl}pyridine-2-carboxamide] | 10 to 100 nM |
| Cc1c(NC(=O)c2ccc(CNCCO)cn2)cc(F)cc1-c1ccc2c(c1)OCCO2 [Example 45, N-[3-(2,3-dihydro-1,4-benzodioxin-6-yl)-5-fluoro-2-methylphenyl]-5-{[(2-hydroxyethyl)amino]methyl}pyridine-2-carboxamide] | ≤ 10 nM |
| CN1CCOc2cc(-c3cccc(NC(=O)c4ccc(CNCCO)cn4)c3C#N)ccc21 [Example 46, N-[2-cyano-3-(4-methyl-3,4-dihydro-2H-1,4-benzoxazin-7-yl)phenyl]-5-{[(2-hydroxyethyl)amino]methyl}pyridine-2-carboxamide] | 100 to 1000 nM |
| N#Cc1c(NC(=O)c2ccc(CNCCO)cn2)cccc1-c1ccc2c(c1)OCC2 [Example 47, N-[2-cyano-3-(2,3-dihydro-1-benzofuran-6-yl)phenyl]-5-{[(2-hydroxyethyl)amino]methyl}pyridine-2-carboxamide] | 10 to 100 nM |
| Cn1cc2ccc(-c3cccc(NC(=O)c4ccc(CNCCO)cn4)c3C#N)cc2n1 [Example 48, N-[2-cyano-3-(2-methyl-2H-indazol-6-yl)phenyl]-5-{[(2-hydroxyethyl)amino]methyl}pyridine-2-carboxamide] | 10 to 100 nM |
| Cn1ncc2c(-c3cccc(NC(=O)c4ccc(CNCCO)cn4)c3C#N)cccc21 [Example 49, N-[2-cyano-3-(1-methyl-1H-indazol-4-yl)phenyl]-5-{[(2-hydroxyethyl)amino]methyl}pyridine-2-carboxamide] | ≤ 10 nM |
